From PubChem BioAssay (NCI)
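Five compound concentrations were applied to cells in 96-well plates for 48 hours; endpoints were derived by simple linear interpolation of the resulting dose-response curve. GI50 marks 50% less growth. TGI is the concentration that stops growth completely.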

Assays:
Assay in all cases: inhibition of tumour cell growth, NCI panel, 48 h
[1] = system: SN12C renal
[2] = system: SR leukemia
[3] = system: SW-620 colon
[4] = system: HL-60(TB) leukemia
[5] = system: COLO 205 colon
[6] = system: 786-0 renal
[7] = system: MALME-3M melanoma
[8] = system: MOLT-4 leukemia
[9] = system: UO-31 renal
[10] = system: MDA-MB-231 breast
[11] = system: UACC-257 melanoma
[12] = system: OVCAR-4 ovarian
[13] = system: NCI-H522 lung
[14] = system: OVCAR-5 ovarian
[15] = system: OVCAR-3 ovarian
[16] = system: HOP-62 NSCLC
[17] = system: KM12 colon
[18] = system: MDA-MB-435
[19] = system: A549 NSCLC
[20] = system: HCT-116 colon
[21] = system: HCT-15 colon
[22] = system: U251 CNS
[23] = system: RPMI-8226 leukemia
[24] = system: HS 578T breast
[25] = system: CAKI-1 renal
[26] = system: RXF 393 renal
[27] = system: NCI-H226 lung
[28] = system: M14 melanoma
[29] = system: HOP-92 NSCLC

Compound `c1ccc(OCC[P+](c2ccccc2)(c2ccccc2)c2ccccc2)cc1` has a GI50 [1] of 1.94 µM, a TGI [1] of 16.4 µM and a GI50 [2] of 2.31 µM. For the same compound, the TGI [2] was 12.3 µM, the GI50 [3] was 1.76 µM and the TGI [3] was 11.8 µM. For the same compound, the GI50 [4] was 0.275 µM, the TGI [4] was 1.45 µM and the GI50 [5] was 0.549 µM. For the same compound, the TGI [5] was 2.02 µM, the GI50 [6] was 5.15 µM and the TGI [6] was 20.8 µM. The GI50 [7] was 1.48 µM, the TGI [7] was 12.9 µM and the GI50 [8] was 3.89 µM. It also gave a TGI [8] of 27.2 µM, a GI50 [9] of 16.9 µM and a TGI [9] of over 79 µM. The GI50 [10] was 2.44 µM, the TGI [10] was 23.9 µM and the GI50 [11] was 0.425 µM. For the same compound, the TGI [11] was 5.41 µM, the GI50 [12] was 0.66 µM and the TGI [12] was 9.44 µM. For the same compound, the GI50 [13] was 0.335 µM, the TGI [13] was 3.74 µM and the GI50 [14] was 2.66 µM. The TGI [14] was 20.6 µM, the GI50 [15] was 1.11 µM and the TGI [15] was 7.69 µM. For the same compound, the GI50 [16] was 1.41 µM, the TGI [16] was 11.1 µM and the GI50 [17] was 1.31 µM. For the same compound, the TGI [17] was 8.84 µM, the GI50 [18] was 0.433 µM and the TGI [18] was 4.31 µM. For the same compound, the GI50 [19] was 2.96 µM, the TGI [19] was 82.5 µM and the GI50 [20] was 0.491 µM. The TGI [20] was 11.3 µM, the GI50 [21] was 12 µM and the TGI [21] was over 100 µM. The GI50 [22] was 0.99 µM, the TGI [22] was 13 µM and the GI50 [23] was 0.187 µM. For the same compound, the TGI [23] was 2.14 µM, the GI50 [24] was 2.27 µM and the TGI [24] was 16.5 µM. For the same compound, the GI50 [25] was 25.4 µM, the TGI [25] was over 100 µM and the GI50 [26] was 4.19 µM. It also gave a TGI [26] of 16 µM, a GI50 [27] of 2.03 µM and a TGI [27] of 12.1 µM. The GI50 [28] was 1.57 µM, the TGI [28] was 9.59 µM and the GI50 [29] was 0.312 µM. The TGI [29] was 3.06 µM.
